According to ChEMBL document CHEMBL5724696, “Autophagy assay results for EUbOPEN Chemogenomics Library” (2024):

Tests used:
Type in all cases: functional, Homo sapiens
U2OS [1] = test: (§1) Here: values are normalized to the negative (DMSO; defined as 0% autophagy induction) and positive (250nM Torin1; mTOR inhibitor; defined as maximal inducer of autophagy = 100%) control compounds and represented as % of autophagy induction. […] The impact of autophagy induction on cells is complex and depends on the affected target. As such, the magnitude of a phenotype may not be equally mirrored in the %-value of autophagy induction and vice versa. The dynamics of the induction may indicate the mode of activation: e.g. activation via phosphorylation or a signaling cascade may occur fast, while activation via transcription factors may take considerably longer. […] Of note, treatment concentrations may be sub-optimal for specific compounds, leading to false negative annotations.; conditions: Culturing Media DMEM, 1 % Penicillin/Streptomycin, 10% Fetal bovin serum Add-On: No, Screening Media Control DMEM, Screening Media Samples DMEM
TERT-RPE1 = test: as §1; conditions: Culturing Media DMEM/F12 (1:1), 1 % Penicillin/Streptomycin, 10% Fetal bovin serum Add-On: No, Screening Media Control DMEM/F12 (1:1), Screening Media Samples DMEM/F12 (1:1)
U2OS [2] = test: as §1; conditions: Culturing Media DMEM, 1 % Penicillin/Streptomycin, 10% Fetal bovin serum Add-On: No, Screening Media Control DMEM, Screening Media Samples DMEM; remark: listed apart in the source
[3] = Compound Concentration 0.5 uM, Timepoint 12 hours
[4] = Compound Concentration 0.5 uM, Timepoint 24 hours
[5] = Compound Concentration 0.5 uM, Timepoint 36 hours
[6] = Compound Concentration 0.5 uM, Timepoint 60 hours
[7] = Compound Concentration 2 uM, Timepoint 12 hours
[8] = Compound Concentration 2 uM, Timepoint 24 hours
[9] = Compound Concentration 2 uM, Timepoint 36 hours
[10] = Compound Concentration 2 uM, Timepoint 60 hours
[11] = Compound Concentration 10 uM, Timepoint 12 hours
[12] = Compound Concentration 10 uM, Timepoint 24 hours
[13] = Compound Concentration 10 uM, Timepoint 36 hours
[14] = Compound Concentration 10 uM, Timepoint 60 hours

| Compound | autophagy induction (U2OS [1]; [3]) | autophagy induction (U2OS [1]; [4]) | autophagy induction (U2OS [1]; [5]) | autophagy induction (U2OS [1]; [6]) | autophagy induction (U2OS [1]; [7]) | autophagy induction (U2OS [1]; [8]) | autophagy induction (U2OS [1]; [9]) | autophagy induction (U2OS [1]; [10]) | autophagy induction (U2OS [1]; [11]) | autophagy induction (U2OS [1]; [12]) | autophagy induction (U2OS [1]; [13]) | autophagy induction (U2OS [1]; [14]) | autophagy induction (TERT-RPE1; [3]) | autophagy induction (TERT-RPE1; [4]) | autophagy induction (TERT-RPE1; [5]) | autophagy induction (TERT-RPE1; [6]) | autophagy induction (TERT-RPE1; [7]) | autophagy induction (TERT-RPE1; [8]) | autophagy induction (TERT-RPE1; [9]) | autophagy induction (TERT-RPE1; [10]) | other results |
| --- | --- | --- | --- | --- | --- | --- | --- | --- | --- | --- | --- | --- | --- | --- | --- | --- | --- | --- | --- | --- | --- |
| COc1ccc(S(=O)(=O)c2cc(OC)ccc2S(=O)(=O)c2ccc([C@H](C)NS(C)(=O)=O)cc2)cc1 | 5.1145% | 1.212% | 0.9926% | 0.6082% | 2.687% | 1.009% | 1.125% | 0.5012% | -3.021% | -0.6189% | -0.5987% | -0.1479% | -6.482% | -9.039% | -9.847% | -11.3186% | -6.676% | -10.1921% | -12.367% | -10.4808% | autophagy induction (TERT-RPE1; [11]): -5.338%; autophagy induction (TERT-RPE1; [12]): -8.134%; autophagy induction (TERT-RPE1; [13]): -7.872%; autophagy induction (TERT-RPE1; [14]): -5.175%; autophagy induction (U2OS [2]; [3]): 5.054%; autophagy induction (U2OS [2]; [4]): -4.288%; autophagy induction (U2OS [2]; [5]): -4.858%; autophagy induction (U2OS [2]; [6]): -2.8349%; autophagy induction (U2OS [2]; [7]): 5.036%; autophagy induction (U2OS [2]; [8]): -1.126%; autophagy induction (U2OS [2]; [9]): 2.146%; autophagy induction (U2OS [2]; [10]): -5.198%; autophagy induction (U2OS [2]; [11]): 5.742%; autophagy induction (U2OS [2]; [12]): 6.2878%; autophagy induction (U2OS [2]; [13]): 4.231%; autophagy induction (U2OS [2]; [14]): -3.951% |
| COc1ccnc(N2CCC3(CCCN(Cc4c[nH]c5ccccc45)C3=O)CC2)n1 | 6.725% | 2.47% | 0.2405% | -0.1995% | -9.208% | -5.729% | -5.289% | -3.421% | 2.478% | -1.409% | -1.806% | -1.259% | -7.48% | -12.7476% | -12.8002% | -18.0789% | -3.2646% | -8.655% | -9.0208% | -13.8382% | autophagy induction (TERT-RPE1; [11]): -6.8833%; autophagy induction (TERT-RPE1; [12]): -7.1204%; autophagy induction (TERT-RPE1; [13]): -8.728%; autophagy induction (TERT-RPE1; [14]): -9.531%; autophagy induction (U2OS [2]; [3]): -0.8639%; autophagy induction (U2OS [2]; [4]): 3.062%; autophagy induction (U2OS [2]; [5]): -2.159%; autophagy induction (U2OS [2]; [6]): 0.6428%; autophagy induction (U2OS [2]; [7]): 14.1219%; autophagy induction (U2OS [2]; [8]): 7.888%; autophagy induction (U2OS [2]; [9]): 7.881%; autophagy induction (U2OS [2]; [10]): 5.533%; autophagy induction (U2OS [2]; [11]): -0.07351%; autophagy induction (U2OS [2]; [12]): -0.8676%; autophagy induction (U2OS [2]; [13]): 0.7982%; autophagy induction (U2OS [2]; [14]): -3.188% |
| C[C@H](CO)Nc1nc(SCc2cccc(Cl)c2F)nc2[nH]c(=O)sc12 | 5.635% | -1.036% | -0.662% | 0.3997% | -11.0736% | -4.995% | -2.19% | -0.5002% | 9.288% | 6.328% | 3.708% | 1.649% | -10.6276% | -12.9518% | -15.2456% | -20.3989% | -5.728% | -8.929% | -11.3534% | -17.566% | autophagy induction (TERT-RPE1; [11]): -4.7585%; autophagy induction (TERT-RPE1; [12]): -7.211%; autophagy induction (TERT-RPE1; [13]): -11.193%; autophagy induction (TERT-RPE1; [14]): -13.8782%; autophagy induction (U2OS [2]; [3]): -2.252%; autophagy induction (U2OS [2]; [4]): -5.227%; autophagy induction (U2OS [2]; [5]): -4.361%; autophagy induction (U2OS [2]; [6]): 0.5148%; autophagy induction (U2OS [2]; [7]): -3.135%; autophagy induction (U2OS [2]; [8]): -6.665%; autophagy induction (U2OS [2]; [9]): -3.053%; autophagy induction (U2OS [2]; [10]): -3.815%; autophagy induction (U2OS [2]; [11]): -3.826%; autophagy induction (U2OS [2]; [12]): 1.119%; autophagy induction (U2OS [2]; [13]): 5.199%; autophagy induction (U2OS [2]; [14]): 9.3581% |
| O=C(Cc1ccccc1)Nc1nc2ccc(Cl)cc2c2nc(-c3ccco3)nn12 | -1.429% | -4.076% | -2.306% | 0.1335% | -7.203% | -1.219% | -0.343% | -0.2104% | -51.1859% | -16.9004% | -8.178% | -3.011% | -7.39% | -10.3716% | -15.7815% | -15.2628% | -6.9816% | -7.632% | -7.871% | -12.6626% | autophagy induction (TERT-RPE1; [11]): -9.4005%; autophagy induction (TERT-RPE1; [12]): 10.615%; autophagy induction (TERT-RPE1; [13]): 24.2695%; autophagy induction (TERT-RPE1; [14]): 38.8225%; autophagy induction (U2OS [2]; [3]): 4.486%; autophagy induction (U2OS [2]; [4]): 1.051%; autophagy induction (U2OS [2]; [5]): 3.966%; autophagy induction (U2OS [2]; [6]): 7.125%; autophagy induction (U2OS [2]; [7]): -5.124%; autophagy induction (U2OS [2]; [8]): -1.574%; autophagy induction (U2OS [2]; [9]): -4.263%; autophagy induction (U2OS [2]; [10]): 4.935%; autophagy induction (U2OS [2]; [11]): -2.171%; autophagy induction (U2OS [2]; [12]): -3.2492%; autophagy induction (U2OS [2]; [13]): 0.6441%; autophagy induction (U2OS [2]; [14]): 10.7185% |
